Conditions in all cases: Sprague-Dawley, rat, iv, 1 mg/kg
Series [1] is described as follows: in vivo.
Description: Clearance in Sprague-Dawley rat at 1 mg/kg, iv
Series [2] is described as follows: in vivo. This is another data set of the same source.
Series [3] can be described thus: in vivo. The source holds these as a separate data set.
Description: Half life in Sprague-Dawley rat at 1 mg/kg, iv

Regarding `C[C@@H](Nc1cc(-c2c(N)nn3cccnc23)ncn1)c1ccc(F)cc1`, the clearance in the series “in vivo [1]” stood at 104 mL/min/kg. This compound returned a Vd in the series “in vivo [2]” of 5.1 L/kg. The compound further showed a half-life in “in vivo [3]” of 54 min.

(Values after ChEMBL document CHEMBL1156132, “2-Aminopyrazolo[1,5-a]pyrimidines as potent and selective inhibitors of JAK2” (Bioorg Med Chem Lett, 2009).)
